In BindingDB's records for doi:10.1021/jm00061a009 (National Institute of Diabetes and Digestive and Kidney …, 1993) one finds Ki data, which are given here for eleven molecules.

Molecules are shown by their SMILES. pKi: −log10 of the molar value.

This assay can be described thus: Inhibition of [3H](+)-pentazocine binding to sigma receptor of guinea pig brain homogenates.
Usually pKi stands for −log10 of the Ki, conventionally taken in molar units. Higher therefore signals a small Ki. Regarding `c1ccc2sc(C3(N4CCCCCC4)CCCCCC3)cc2c1` [1-(1-Benzo[b]thiophen-2-yl-cycloheptyl)-azepane], the pKi is 5.57.

Take `c1ccc2sc(C3(N4CCCCC4)CCCCCC3)cc2c1` [1-(1-Benzo[b]thiophen-2-yl-cycloheptyl)-piperidine]: the pKi is 5.65.

The molecule `c1ccc2sc(C3(N4CCCC4)CCCCCC3)cc2c1` [1-(1-Benzo[b]thiophen-2-yl-cycloheptyl)-pyrrolidine] showed a pKi of 6.14.

Consider `c1ccc2sc(C3(N4CCCCCC4)CCCCC3)cc2c1` [1-(1-Benzo[b]thiophen-2-yl-cyclohexyl)-azepane], for which the pKi is 6.17. This pKi and that of the molecule before are within 0.2 log units of each other.

Molecule `c1ccc2sc(C3(N4CCCC4)CCCCC3)cc2c1` [1-(1-Benzo[b]thiophen-2-yl-cyclohexyl)-pyrrolidine] gave a pKi of 6.77. The value for `c1ccc2sc(C3(N4CCCCCC4)CCCC3)cc2c1` [1-(1-Benzo[b]thiophen-2-yl-cyclopentyl)-azepane] was 5.54.

For the molecule `c1ccc2sc(C3(N4CCCCC4)CCCC3)cc2c1` [1-(1-Benzo[b]thiophen-2-yl-cyclopentyl)-piperidine], the pKi is 5.96. As for `c1ccc2sc(C3(N4CCCC4)CCCC3)cc2c1` [1-(1-Benzo[b]thiophen-2-yl-cyclopentyl)-pyrrolidine], the pKi was 6.90.

Consider `NC1(c2cc3ccccc3s2)CCCCCC1` [1-Benzo[b]thiophen-2-yl-cycloheptylamine], for which the pKi is 5.04.

The molecule `NC1(c2cc3ccccc3s2)CCCCC1` [1-Benzo[b]thiophen-2-yl-cyclohexylamine] had a pKi of 5.50. Turning to `NC1(c2cc3ccccc3s2)CCCC1` [1-Benzo[b]thiophen-2-yl-cyclopentylamine], the pKi is 5.76.
